These results are taken from US20230051589A1, “COMPOUNDS AND COMPOSITIONS FOR TREATING CONDITIONS ASSOCIATED WITH NLRP ACTIVITY” (Novartis AG, priority 2018, published 2023).

Each structure is given as a SMILES string. A value given as a limit tells only on which side of the number the result lay.

The test system of one assay is IL-1β production in PMA-differentiated THP-1 cells. The experiment in a line: IL-1β production in PMA-differentiated THP-1 cells stimulated with gramicidin (hTHP-1 assay, 2% fetal bovine serum; Procedures 1-3). It counts as cell-based, human. The note with it: Homo sapiens, THP-1, Table B3; hTHP-1 assay containing 2% fetal bovine serum, gramicidin stimulation, IL-1β readout; read-out: hTHP-1 IC50. Summed up:
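IL-1β released into supernatants was read by HTRF after 2 h gramicidin (5 μM) challenge. Before challenge, compounds (3-fold dilutions, top 100 μM, 0.37% DMSO) were given 1 h on THP-1 cells differentiated with PMA (20 ng/ml, 16-18 h) and held in 2% FBS medium.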
As to `CNC(c1ccc(S(N)(=O)=NC(=O)Nc2c3c(cc4c2CC4)CCC3)s1)C1CC1` (single isomer, unassigned) [Example 721, 5-((R) or (S)-cyclopropyl(methylamino)methyl)-N′-((2,4,5,6-tetrahydro-1H-cyclobuta[f]inden-3-yl)carbamoyl)thiophene-2-sulfonimidamide], the IC50 (commonly the point on the concentration scale where inhibition reaches its midpoint) was in the range of 8 to 40 nM. In the case of `NS(=O)(=NC(=O)Nc1c2c(cc3c1CC3)CCC2)c1cc2c(s1)CCNC2C(F)F` (single isomer, unassigned) [Example 782, (S) or (R) -4-(difluoromethyl)-N′-((2,4,5,6-tetrahydro-1H-cyclobuta[f]inden-3-yl)carbamoyl)-4,5,6,7-tetrahydrothieno[3,2-c]pyridine-2-sulfonimidamide], the IC50 was 200 to 1000 nM. Take `NS(=O)(=NC(=O)Nc1c2c(cc3c1CCC3)CCC2)c1ccc(-c2ccccc2)s1` (single isomer, unassigned) [Example 799, (R) or (S)-N′-((1,2,3,5,6,7-hexahydro-s-indacen-4-yl)carbamoyl)-5-phenylthiophene-2-sulfonimidamide]: the concentration for half-maximal inhibition (IC50) is above 30000 nM.

Staying with this assay, now noted: Table B3; hTHP-1 assay containing 2% fetal bovine serum, gramicidin stimulation, IL-1β readout; read-out: hTHP-1 IC50.
Regarding `NS(=O)(=NC(=O)Nc1c2c(cc3c1CC3)CCC2)c1cc2c(s1)CCNC2` (single isomer, unassigned) [Example 716], the 50% inhibitory concentration (IC50) was in the range of 8 to 40 nM. On to `NS(=O)(=NC(=O)Nc1c2c(cc3c1CC3)CCC2)c1cc2c(s1)CCNC2` (single isomer, unassigned) [Example 717], for which the half-inhibitory concentration (IC50) fell in the range of 200 to 1000 nM.

On to `CNC(c1ccc(S(N)(=O)=NC(=O)Nc2c3c(cc4c2CC4)CCC3)s1)C1CC1` (single isomer, unassigned) [Example 720, 5-((S) or (R)-cyclopropyl(methylamino)methyl)-N′-((2,4,5,6-tetrahydro-1H-cyclobuta[f]inden-3-yl)carbamoyl)thiophene-2-sulfonimidamide], for which the IC50 lay in the range of 8 to 40 nM. On the same count and under the same terms, the figure for `NS(=O)(=NC(=O)Nc1c2c(cc3c1CC3)CCC2)c1cc2c(s1)CCNC2C(F)F` (single isomer, unassigned) [Example 783, (R) or (S) -4-(difluoromethyl)-N′-((2,4,5,6-tetrahydro-1H-cyclobuta[f]inden-3-yl)carbamoyl)-4,5,6,7-tetrahydrothieno[3,2-c]pyridine-2-sulfonimidamide] is 200 to 1000 nM; for `NS(=O)(=NC(=O)Nc1c2c(cc3c1CCC3)CCC2)c1cc2c(s1)CCNC2` (single isomer, unassigned) [Example 787, (R) or (S)-N′-((1,2,3,5,6,7-hexahydro-s-indacen-4-yl)carbamoyl)-4,5,6,7-tetrahydrothieno[3,2-c]pyridine-2-sulfonimidamide] it is 40 to 200 nM.

As to `NS(=O)(=NC(=O)Nc1c2c(cc3c1CCC3)CCC2)c1cc2c(s1)CCNC2` (single isomer, unassigned) [Example 788, (S) or (R)-N′-((1,2,3,5,6,7-hexahydro-5-indacen-4-yl)carbamoyl)-4,5,6,7-tetrahydrothieno[3,2-c]pyridine-2-sulfonimidamide], the half-maximal inhibitory concentration (IC50) fell in the range of 200 to 1000 nM. On to `NS(=O)(=NC(=O)Nc1c2c(cc3c1CCC3)CCC2)c1cc2c(s1)CCOC2` (single isomer, unassigned) [Example 789, (R) or (S)-N′-((1,2,3,5,6,7-hexahydro-5-indacen-4-yl)carbamoyl)-6,7-dihydro-4H-thieno[3,2-c]pyran-2-sulfonimidamide], for which the IC50 was in the range of 200 to 1000 nM. Consider `NS(=O)(=NC(=O)Nc1c2c(cc3c1CCC3)CCC2)c1cc2c(s1)CCOC2` (single isomer, unassigned) [Example 790, (S) or (R)-N′-((1,2,3,5,6,7-hexahydro-s-indacen-4-yl)carbamoyl)-6,7-dihydro-4H-thieno[3,2-c]pyran-2-sulfonimidamide], for which the IC50 is 5000 to 30000 nM.

As for `CNS(=O)(=O)c1cccc(S(N)(=O)=NC(=O)Nc2c3c(cc4c2CCC4)CCC3)c1` (single isomer, unassigned) [Example 791, (R) or (S)-3-(N′-((1,2,3,5,6,7-hexahydro-5-indacen-4-yl)carbamoyl)sulfamidimidoyl)-N-methylbenzenesulfonamide], the concentration for half-maximal inhibition (IC50) was in the range of 200 to 1000 nM. `CNS(=O)(=O)c1cccc(S(N)(=O)=NC(=O)Nc2c3c(cc4c2CCC4)CCC3)c1` (single isomer, unassigned) [Example 792, (S) or (R)-3-(N′-((1,2,3,5,6,7-hexahydro-s-indacen-4-yl)carbamoyl)sulfamidimidoyl)-N-methylbenzenesulfonamide]: the IC50 was 1000 to 5000 nM. Take `COCCOC[C@@](C)(O)c1ncc(S(N)(=O)=NC(=O)Nc2c3c(cc4c2CCC4)CCC3)s1` (single isomer, unassigned) [Example 793, (S) or (R)-N′-((1,2,3,5,6,7-hexahydro-s-indacen-4-yl)carbamoyl)-2-((R)-2-hydroxy-1-(2-methoxyethoxy)propan-2-yl)thiazole-5-sulfonimidamide]: the IC50 lay in the range of 1000 to 5000 nM. With `COCCOC[C@@](C)(O)c1ncc(S(N)(=O)=NC(=O)Nc2c3c(cc4c2CCC4)CCC3)s1` (single isomer, unassigned) [Example 794, (R) or (S)-N′-((1,2,3,5,6,7-hexahydro-s-indacen-4-yl)carbamoyl)-2-((R)-2-hydroxy-1-(2-methoxyethoxy)propan-2-yl)thiazole-5-sulfonimidamide], the IC50 was in the range of 8 to 40 nM.

Regarding `NS(=O)(=NC(=O)Nc1c2c(cc3c1CCC3)CCC2)c1sc(CNC2CCC2)cc1F` (single isomer, unassigned) [Example 795, (R) or (S)-5-((cyclobutylamino)methyl)-3-fluoro-N′-((1,2,3,5,6,7-hexahydro-s-indacen-4-yl)carbamoyl)thiophene-2-sulfonimidamide], the IC50 was in the range of 200 to 1000 nM.

In the case of `NS(=O)(=NC(=O)Nc1c2c(cc3c1CCC3)CCC2)c1sc(CNC2CCC2)cc1F` (single isomer, unassigned) [Example 796, (S) or (R)-5-((cyclobutylamino)methyl)-3-fluoro-N′-((1,2,3,5,6,7-hexahydro-s-indacen-4-yl)carbamoyl)thiophene-2-sulfonimidamide], the concentration for half-maximal inhibition (IC50) fell in the range of 5000 to 30000 nM. In the case of `CN(Cc1ccc(S(N)(=O)=NC(=O)Nc2c3c(cc4c2CC4)CCC3)c(F)c1)C1CCC1` (single isomer, unassigned) [Example 797, (R) or (S)-4-((cyclobutyl(methyl)amino)methyl)-2-fluoro-N′-((2,4,5,6-tetrahydro-1H-cyclobuta[f]inden-3-yl)carbamoyl)benzenesulfonimidamide], the IC50 was 200 to 1000 nM. Regarding `CN(Cc1ccc(S(N)(=O)=NC(=O)Nc2c3c(cc4c2CC4)CCC3)c(F)c1)C1CCC1` (single isomer, unassigned) [Example 798, (S) or (R)-4-((cyclobutyl(methyl)amino)methyl)-2-fluoro-N′-((2,4,5,6-tetrahydro-1H-cyclobuta[f]inden-3-yl)carbamoyl)benzenesulfonimidamide], the IC50 is above 30000 nM. Regarding `NS(=O)(=NC(=O)Nc1c2c(cc3c1CCC3)CCC2)c1ccc(-c2ccccc2)s1` (single isomer, unassigned) [Example 800, (S) or (R)-N′-((1,2,3,5,6,7-hexahydro-s-indacen-4-yl)carbamoyl)-5-phenylthiophene-2-sulfonimidamide], the IC50 was above 30000 nM. Same read-out and setting: under `CC(C)(O)c1sc(S(N)(=O)=NC(=O)Nc2c3c(cc4c2CCC4)CCC3)cc1-c1ccccc1` (single isomer, unassigned) [Example 801, (S) or (R)-N′-((1,2,3,5,6,7-hexahydro-s-indacen-4-yl)carbamoyl)-5-(2-hydroxypropan-2-yl)-4-phenylthiophene-2-sulfonimidamide] stands 5000 to 30000 nM. In the case of `CC(C)(O)c1sc(S(N)(=O)=NC(=O)Nc2c3c(cc4c2CCC4)CCC3)cc1-c1ccccc1` (single isomer, unassigned) [Example 802, (R) or (S)-N′-((1,2,3,5,6,7-hexahydro-s-indacen-4-yl)carbamoyl)-5-(2-hydroxypropan-2-yl)-4-phenylthiophene-2-sulfonimidamide], the IC50 lay within 40 to 200 nM.

For the compound `CN(C)Cc1ccc(S(N)(=O)=NC(=O)Nc2c3c(cc4c2CCC4)CCC3)s1` (single isomer, unassigned) [Example 803, (R) or (S)-5-((dimethylamino)methyl)-N′-((1,2,3,5,6,7-hexahydro-5-indacen-4-yl)carbamoyl)thiophene-2-sulfonimidamide], the IC50 lay in the range of 200 to 1000 nM.

In the case of `CN(C)Cc1ccc(S(N)(=O)=NC(=O)Nc2c3c(cc4c2CCC4)CCC3)s1` (single isomer, unassigned) [Example 804, (S) or (R)-5-((dimethvlamino)methyl)-N′-((1,2,3,5,6,7-hexahydro-s-indacen-4-yl)carbamoyl)thiophene-2-sulfonimidamide], the half-inhibitory concentration (IC50) was in the range of 5000 to 30000 nM.

Staying with this assay, now noted: hTHP-1 assay containing 2% fetal bovine serum, Table B2, class symbols; read-out: IC50.
For `CN[C@H]1COc2c(S(N)(=O)=NC(=O)Nc3c4c(cc5c3CCC5)CCC4)cnn2C1` (single isomer, unassigned) [Example 697, (R) or (S)-(6R)-N′-((1,2,3,5,6,7-hexahydro-s-indacen-4-yl)carbamoyl)-6-(methylamino)-6,7-dihydro-5H-pyrazolo[5,1-b][1,3]oxazine-3-sulfonimidamide], the IC50 lay in the range of 40 to 200 nM. For `CN[C@H]1COc2c(S(N)(=O)=NC(=O)Nc3c4c(cc5c3CCC5)CCC4)cnn2C1` (single isomer, unassigned) [Example 698, (S) or (R)-(6R)-N′-((1,2,3,5,6,7-hexahydro-s-indacen-4-yl)carbamoyl)-6-(methylamino)-6,7-dihydro-5H-pyrazolo[5,1-b][1,3]oxazine-3-sulfonimidamide], the 50% inhibitory concentration (IC50) lay within 1000 to 5000 nM. Consider `N=S(=O)(NC(=O)Nc1c2c(cc3c1CCC3)CCC2)c1nn(C(F)F)cc1F` (single isomer, unassigned) [Example 710], for which the concentration for half-maximal inhibition (IC50) fell in the range of 40 to 200 nM. As for `N=S(=O)(NC(=O)Nc1c2c(cc3c1CCC3)CCC2)c1nn(C(F)F)cc1F` (single isomer, unassigned) [Example 711], the half-inhibitory concentration (IC50) fell in the range of 1000 to 5000 nM.
